Measured values taken from patent publication US11912686B2 (Gilead Sciences, Inc., priority 2020, dated 2024).

Target: human LPAR1 (Homo sapiens (Human), UniProt Q92633)
Experiment: LPAR1 intracellular calcium mobilization assay (antagonist mode, FLIPR)
Assay type: cell-based
Details: CHO-K1 EDG2 cells expressing human LPAR1, LPA 18:2 at EC80 (100 nM), test compound 0.5 nM to 10 μM

Sequence of human LPAR1 (Q92633 whole entry): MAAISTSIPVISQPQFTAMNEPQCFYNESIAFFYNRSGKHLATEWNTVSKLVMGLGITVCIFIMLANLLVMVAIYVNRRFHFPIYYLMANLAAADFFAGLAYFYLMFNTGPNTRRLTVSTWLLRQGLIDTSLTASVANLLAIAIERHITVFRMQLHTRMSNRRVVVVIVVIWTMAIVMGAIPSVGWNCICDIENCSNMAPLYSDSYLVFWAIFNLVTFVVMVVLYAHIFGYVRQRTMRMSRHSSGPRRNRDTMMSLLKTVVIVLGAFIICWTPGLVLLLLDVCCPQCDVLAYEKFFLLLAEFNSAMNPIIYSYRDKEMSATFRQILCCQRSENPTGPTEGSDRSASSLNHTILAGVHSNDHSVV

| Compound | EC50 |
| --- | --- |
| C[C@@H](OC(=O)Nc1c(-c2ccc(NC=O)cn2)nnn1C)c1cccnc1Cl [Compound 16, (R)-1-(2-chloropyridin-3-yl)ethyl (4-(5-formamidopyridin-2-yl)-1-methyl-1H-1,2,3-triazol-5-yl)carbamate] | 2180 nM |
| COC(=O)Nc1ccc(-c2nnn(C)c2NC(=O)O[C@H](C)c2cccnc2Cl)nc1 [Compound 17, (R)-1-(2-chloropyridin-3-yl)ethyl (4-(5-((methoxycarbonyl)amino)pyridin-2-yl)-1-methyl-1H-1,2,3-triazol-5-yl)carbamate] | 29.3 nM |
| COC(=O)Nc1ccc(-c2nnn(C)c2NC(=O)O[C@H](CF)c2ccccc2)cc1 [Compound 18, (S)-2-fluoro-1-phenylethyl (4-(4-((methoxycarbonyl)amino)phenyl)-1-methyl-1H-1,2,3-triazol-5-yl)carbamate] | 1130 nM |
| COC(=O)Nc1ccc(-c2nnn(C)c2NC(=O)O[C@H](CF)c2cccc(F)c2)nc1 [Compound 19, (S)-2-fluoro-1-(3-fluorophenyl)ethyl (4-(5-((methoxycarbonyl)amino)pyridin-2-yl)-1-methyl-1H-1,2,3-triazol-5-yl)carbamate] | 276 nM |
| CCOC(=O)Nc1ccc(-c2nnn(C)c2NC(=O)O[C@H](C)c2cccnc2Cl)nc1 [Compound 21, (R)-1-(2-chloropyridin-3-yl)ethyl (4-(5-((ethoxycarbonyl)amino)pyridin-2-yl)-1-methyl-1H-1,2,3-triazol-5-yl)carbamate] | 39.6 nM |
| CC(C)COC(=O)Nc1ccc(-c2nnn(C)c2NC(=O)O[C@H](C)c2cccnc2Cl)nc1 [Compound 22, (R)-1-(2-chloropyridin-3-yl)ethyl (4-(5-((isobutoxycarbonyl)amino)pyridin-2-yl)-1-methyl-1H-1,2,3-triazol-5-yl)carbamate] | 43.4 nM |
| CC(=O)Nc1ccc(-c2nnn(C)c2NC(=O)O[C@H](C)c2cccnc2Cl)nc1 [Compound 23, (R)-1-(2-chloropyridin-3-yl)ethyl (4-(5-acetamidopyridin-2-yl)-1-methyl-1H-1,2,3-triazol-5-yl)carbamate] | 1100 nM |
| CC(=O)Nc1ccc(-c2nnn(C)c2NC(=O)O[C@H](CF)c2cccc(F)c2)nc1 [Compound 25, (S)-2-fluoro-1-(3-fluorophenyl)ethyl (4-(5-acetamidopyridin-2-yl)-1-methyl-1H-1,2,3-triazol-5-yl)carbamate] | 2270 nM |
| Cc1cnc(F)cc1C(C)OC(=O)Nc1c(-c2ccc(NC(=O)C3CC(F)(F)C3)cn2)nnn1C (stereo not shown) [Compound 26, 1-(2-fluoro-5-methylpyridin-4-yl)ethyl (4-(5-(3,3-difluorocyclobutane-1-carboxamido)pyridin-2-yl)-1-methyl-1H-1,2,3-triazol-5-yl)carbamate] | 587 nM |
| Cc1cnc(F)cc1C(C)OC(=O)Nc1c(-c2ccc(NC(=O)C3(C#N)CC3)cn2)nnn1C (stereo not shown) [Compound 27, 1-(2-fluoro-5-methylpyridin-4-yl)ethyl (4-(5-(1-cyanocyclopropane-1-carboxamido)pyridin-2-yl)-1-methyl-1H-1,2,3-triazol-5-yl)carbamate] | 1280 nM |
| C[C@@H](OC(=O)Nc1c(-c2ccc(NC(=O)C3CC(F)(F)C3)cn2)nnn1C)c1cc(F)cnc1F [Compound 28, (R)-1-(2,5-difluoropyridin-3-yl)ethyl (4-(5-(3,3-difluorocyclobutane-1-carboxamido)pyridin-2-yl)-1-methyl-1H-1,2,3-triazol-5-yl)carbamate] | 29.1 nM |
| C[C@@H](OC(=O)Nc1c(-c2ccc(NC(=O)c3ccccc3)cn2)nnn1C)c1cccnc1Cl [Compound 29, (R)-1-(2-chloropyridin-3-yl)ethyl (4-(5-benzamidopyridin-2-yl)-1-methyl-1H-1,2,3-triazol-5-yl)carbamate] | 261 nM |
| CCCC(=O)Nc1ccc(-c2nnn(C)c2NC(=O)O[C@H](C)c2cccnc2Cl)nc1 [Compound 30, (R)-1-(2-chloropyridin-3-yl)ethyl (4-(5-butyramidopyridin-2-yl)-1-methyl-1H-1,2,3-triazol-5-yl)carbamate] | 516 nM |
| COCC(=O)Nc1ccc(-c2nnn(C)c2NC(=O)O[C@H](C)c2cccnc2Cl)nc1 [Compound 31, (R)-1-(2-chloropyridin-3-yl)ethyl (4-(5-(2-methoxyacetamido)pyridin-2-yl)-1-methyl-1H-1,2,3-triazol-5-yl)carbamate] | 2330 nM |
| C[C@@H](OC(=O)Nc1c(-c2ccc(NC(=O)C3(C)CC3)cn2)nnn1C)c1cccnc1Cl [Compound 32, (R)-1-(2-chloropyridin-3-yl)ethyl (1-methyl-4-(5-(1-methylcyclopropane-1-carboxamido)pyridin-2-yl)-1H-1,2,3-triazol-5-yl)carbamate] | 799 nM |
| CCC(=O)Nc1ccc(-c2nnn(C)c2NC(=O)O[C@H](C)c2cccnc2Cl)nc1 [Compound 33, (R)-1-(2-chloropyridin-3-yl)ethyl (1-methyl-4-(5-propionamidopyridin-2-yl)-1H-1,2,3-triazol-5-yl)carbamate] | 1020 nM |

| Compound | EC50 |
| --- | --- |
| C[C@@H](OC(=O)Nc1c(-c2ccc(NC(=O)C3CC3)cn2)nnn1C)c1cccnc1Cl [Compound 34, (R)-1-(2-chloropyridin-3-yl)ethyl (4-(5-(cyclopropanecarboxamido)pyridin-2-yl)-1-methyl-1H-1,2,3-triazol-5-yl)carbamate] | 429 nM |
| C[C@@H](OC(=O)Nc1c(-c2ccc(NC(=O)C3CCC3)cn2)nnn1C)c1cccnc1Cl [Compound 35, (R)-1-(2-chloropyridin-3-yl)ethyl (4-(5-(cyclobutanecarboxamido)pyridin-2-yl)-1-methyl-1H-1,2,3-triazol-5-yl)carbamate] | 103 nM |
| C[C@@H](OC(=O)Nc1c(-c2ccc(NC(=O)C(F)F)cn2)nnn1C)c1cccnc1Cl [Compound 36, (R)-1-(2-chloropyridin-3-yl)ethyl (4-(5-(2,2-difluoroacetamido)pyridin-2-yl)-1-methyl-1H-1,2,3-triazol-5-yl)carbamate] | 112 nM |
| C[C@@H](OC(=O)Nc1c(-c2ccc(NC(=O)C3CC(F)(F)C3)cn2)nnn1C)c1cccnc1Cl [Compound 37, (R)-1-(2-chloropyridin-3-yl)ethyl (4-(5-(3,3-difluorocyclobutane-1-carboxamido)pyridin-2-yl)-1-methyl-1H-1,2,3-triazol-5-yl)carbamate] | 54.6 nM |
| C[C@@H](OC(=O)Nc1c(-c2ccc(NC(=O)C3CNC3)cn2)nnn1C)c1cccnc1Cl [Compound 38, (R)-1-(2-chloropyridin-3-yl)ethyl (4-(5-(azetidine-3-carboxamido)pyridin-2-yl)-1-methyl-1H-1,2,3-triazol-5-yl)carbamate] | 10000 nM |
| C[C@@H](OC(=O)Nc1c(-c2ccc(NC(=O)C3(C#N)CC3)cn2)nnn1C)c1cc(F)cnc1F [Compound 39, (R)-1-(2,5-difluoropyridin-3-yl)ethyl (4-(5-(1-cyanocyclopropane-1-carboxamido)pyridin-2-yl)-1-methyl-1H-1,2,3-triazol-5-yl)carbamate] | 50.8 nM |
| C[C@@H](OC(=O)Nc1c(-c2ccc(NC(=O)C3(Cl)CC3)cn2)nnn1C)c1cccnc1Cl [Compound 40, (R)-1-(2-chloropyridin-3-yl)ethyl (4-(5-(1-chlorocyclopropane-1-carboxamido)pyridin-2-yl)-1-methyl-1H-1,2,3-triazol-5-yl)carbamate] | 75.2 nM |
| C[C@@H](OC(=O)Nc1c(-c2ccc(NC(=O)C3CC4(C3)CC(F)(F)C4)cn2)nnn1C)c1cccnc1Cl [Compound 41, (R)-1-(2-chloropyridin-3-yl)ethyl (4-(5-(6,6-difluorospiro[3.3]heptane-2-carboxamido)pyridin-2-yl)-1-methyl-1H-1,2,3-triazol-5-yl)carbamate] | 38.1 nM |
| C[C@@H](OC(=O)Nc1c(-c2ccc(NC(=O)C3CC4(COC4)C3)cn2)nnn1C)c1cccnc1Cl [Compound 42, (R)-1-(2-chloropyridin-3-yl)ethyl (4-(5-(2-oxaspiro[3.3]heptane-6-carboxamido)pyridin-2-yl)-1-methyl-1H-1,2,3-triazol-5-yl)carbamate] | 201 nM |
| C[C@@H](OC(=O)Nc1c(-c2ccc(NC(=O)C3CS(=O)(=O)C3)cn2)nnn1C)c1cccnc1Cl [Compound 43, (R)-1-(2-chloropyridin-3-yl)ethyl (4-(5-(1,1-dioxidothietane-3-carboxamido)pyridin-2-yl)-1-methyl-1H-1,2,3-triazol-5-yl)carbamate] | 497 nM |
| C[C@@H](OC(=O)Nc1c(-c2ccc(NC(=O)C34CC(C5COC5)(C3)C4)cn2)nnn1C)c1cccnc1Cl [Compound 44, (R)-1-(2-chloropyridin-3-yl)ethyl (1-methyl-4-(5-(3-(oxetan-3-yl)bicyclo[1.1.1]pentane-1-carboxamido)pyridin-2-yl)-1H-1,2,3-triazol-5-yl)carbamate] | 165 nM |
| C[C@@H](OC(=O)Nc1c(-c2ccc(NC(=O)C34CC(C(F)F)(C3)C4)cn2)nnn1C)c1cccnc1Cl [Compound 45, (R)-1-(2-chloropyridin-3-yl)ethyl (4-(5-(3-(difluoromethyl)bicyclo[1.1.1]pentane-1-carboxamido)pyridin-2-yl)-1-methyl-1H-1,2,3-triazol-5-yl)carbamate] | 40.8 nM |
| COC12CC(C(=O)Nc3ccc(-c4nnn(C)c4NC(=O)O[C@H](C)c4cccnc4Cl)nc3)(C1)C2 [Compound 46, (R)-1-(2-chloropyridin-3-yl)ethyl (4-(5-(3-methoxybicyclo[1.1.1]pentane-1-carboxamido)pyridin-2-yl)-1-methyl-1H-1,2,3-triazol-5-yl)carbamate] | 29.7 nM |
| C[C@@H](OC(=O)Nc1c(-c2ccc(NC(=O)C34CC(C)(C3)C4)cn2)nnn1C)c1cccnc1Cl [Compound 47, (R)-1-(2-chloropyridin-3-yl)ethyl (1-methyl-4-(5-(3-methylbicyclo[1.1.1]pentane-1-carboxamido)pyridin-2-yl)-1H-1,2,3-triazol-5-yl)carbamate] | 19.1 nM |
| C[C@@H](OC(=O)Nc1c(-c2ccc(NC(=O)C3(C(F)(F)F)CCC3)cn2)nnn1C)c1cccnc1Cl [Compound 48, (R)-1-(2-chloropyridin-3-yl)ethyl (1-methyl-4-(5-(1-(trifluoromethyl)cyclobutane-1-carboxamido)pyridin-2-yl)-1H-1,2,3-triazol-5-yl)carbamate] | 22.8 nM |
